Measurements reported in US9770026B2, “Substituted pyrimidine compound and uses thereof” (Shenyang Sinochem Agrochemicals R&D Co., Ltd., priority 2012, dated 2017).

Columns and labels:
cucumber gray mold = assay: fungicidal activity in vitro (inhibition rate) against cucumber gray mold; assay type: cell-based; conditions: 25 ppm, in vitro; read-out: inhibition rate against cucumber gray mold
cucumber downy mildew = assay: protectant activity in vivo against cucumber downy mildew; conditions: Cucumis sativus, 168 h; for pest or weed control at 400 µg/mL: read-out: control effect against cucumber downy mildew (%), 400 mg/L
rice blast = assay: microbe, parasite or virus in culture; assay type: cell-based; conditions: Pyricularia oryzae; for inhibition at 25 ppm: read-out: inhibition rate against rice blast, 25 ppm, in vitro
wheat powdery mildew = assay: protectant activity in vivo against wheat powdery mildew; conditions: Triticum aestivum, 168 h; for pest or weed control at 6.25 µg/mL: read-out: control effect against wheat powdery mildew (%), 6.25 mg/L; for pest or weed control at 25 µg/mL: read-out: control effect against wheat powdery mildew (%), 25 mg/L; for pest or weed control at 100 µg/mL: read-out: control effect against wheat powdery mildew (%), 100 mg/L; for pest or weed control at 400 µg/mL: read-out: control effect against wheat powdery mildew (%), 400 mg/L
corn rust = assay: protectant activity in vivo against corn rust; conditions: Zea mays, 168 h; for pest or weed control at 6.25 µg/mL: read-out: control effect against corn rust (%), 6.25 mg/L; for pest or weed control at 25 µg/mL: read-out: control effect against corn rust (%), 25 mg/L; for pest or weed control at 100 µg/mL: read-out: control effect against corn rust (%), 100 mg/L; for pest or weed control at 400 µg/mL: read-out: control effect against corn rust (%), 400 mg/L
armyworm = assay: bioactivity test against armyworm, airbrush spray; assay type: in vivo; conditions: 72 h; for pest or weed control at 600 µg/mL: 600 mg/L
carmine spider mite = assay: bioactivity test against carmine spider mite, airbrush spray; assay type: in vivo; conditions: Tetranychus cinnabarinus, 72 h; for pest or weed control at 600 µg/mL: 600 mg/L, contrastive test, read-out: Insecticidal activity against carmine spider mite (% )
Method in brief: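 Broadbean seedlings infested with adult mites were sprayed with compound (acetone/methanol stock diluted in 0.1% Tween 80 water) by airbrush at 0.7 kg/cm^2, 0.5 ml. Three replicates were run. Mortality was scored after 72 hrs.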

[1] = tested on: Green peach aphids (Myzus Persicae Sulzer); assay: bioactivity test against green peach aphid, airbrush foliar spray; assay type: in vivo; conditions: Myzus persicae, foliar, 48 h; for pest or weed control at 600 µg/mL: 600 mg/L; for pest or weed control at 600 µg/mL / pest or weed control at 10 µg/mL / pest or weed control at 100 µg/mL: contrastive test, read-out: Insecticidal activity against peach aphid (%); for pest or weed control at 10 µg/mL: 10 mg/L; for pest or weed control at 100 µg/mL: 100 mg/L
Method in brief: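 Death rate was scored at 48 hrs, held at 25±1 C and 60±5% RH, following airbrush foliar spray (0.5 mL, 10 psi) onto cabbage leaf discs bearing about 15-30 aphids. Test solutions: compound dissolved in 1:1 acetone:methanol, brought to concentration with 0.1% tween 80 water.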

Diamond back moth = assay: insecticidal activity against diamond back moth, airbrush spray; assay type: in vivo; conditions: 72 h; for pest or weed control at 600 µg/mL: 600 mg/L
Method in brief: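 Airbrush leaf-disc spray test: both faces of 2 cm cabbage discs received 0.5 ml of test solution at 0.7 kg/cm^2. Solutions were made in acetone:methanol (1:1) and brought to concentration with 0.1% Tween 80 in water. Ten second-instar larvae per disc, triplicates, were held at 25° C and 60˜70% R.H., with mortality recorded at 72 hrs.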

[2] = read-out: Insecticidal activity against armyworm (%)

Row | SMILES | inhibition at 25 ppm (cucumber gray mold) | pest or weed control at 400 µg/mL (cucumber downy mildew; protectant activity) | inhibition at 25 ppm (rice blast) | pest or weed control at 6.25 µg/mL (wheat powdery mildew; protectant activity) | pest or weed control at 25 µg/mL (wheat powdery mildew; protectant activity) | pest or weed control at 100 µg/mL (wheat powdery mildew; protectant activity) | pest or weed control at 400 µg/mL (wheat powdery mildew; protectant activity) | pest or weed control at 6.25 µg/mL (corn rust; protectant activity) | pest or weed control at 25 µg/mL (corn rust; protectant activity) | pest or weed control at 100 µg/mL (corn rust; protectant activity) | pest or weed control at 400 µg/mL (corn rust; protectant activity) | pest or weed control at 600 µg/mL (armyworm; [2]) | pest or weed control at 600 µg/mL (carmine spider mite) | pest or weed control at 600 µg/mL [1] | pest or weed control at 600 µg/mL (Diamond back moth) | pest or weed control at 10 µg/mL [1] | pest or weed control at 100 µg/mL [1] | also measured
1 | CC(F)c1ncnc(NCCc2ccc(Oc3ccc(C(F)(F)F)cc3)cc2)c1Cl (stereo not shown) [CK1, reference compound] | 0% | 100% | 0% | 80% | 100% | 100% | 100% | – | – | – | – | – | – | – | – | – | – | pest or weed control at 3.125 µg/mL (cucumber downy mildew; read-out: control effect against cucumber downy mildew (%), 3.125 mg/L, protectant activity): 20%; pest or weed control at 6.25 µg/mL (cucumber downy mildew; read-out: control effect against cucumber downy mildew (%), 6.25 mg/L, protectant activity): 30%; pest or weed control at 12.5 µg/mL (cucumber downy mildew; read-out: control effect against cucumber downy mildew (%), 12.5 mg/L, protectant activity): 50%; pest or weed control at 25 µg/mL (cucumber downy mildew; read-out: control effect against cucumber downy mildew (%), 25 mg/L, protectant activity): 100%; pest or weed control at 50 µg/mL (cucumber downy mildew; read-out: control effect against cucumber downy mildew (%), 50 mg/L, protectant activity): 100%; pest or weed control at 100 µg/mL (cucumber downy mildew; read-out: control effect against cucumber downy mildew (%), 100 mg/L, protectant activity): 100%
2 | CCc1ncnc(NC(C)c2ccc(Oc3ccc(C(F)(F)F)cc3)cc2)c1Cl (stereo not shown) [CK47, reference compound] | 0% | – | < 50% | – | – | – | – | 0% | 0% | 30% | 80% | 86% | – | – | – | – | – | inhibition at 8.3 ppm (rice blast; read-out: inhibition rate against rice blast, 8.3 ppm, in vitro): 0%; pest or weed control at 10 µg/mL (armyworm; 10 mg/L, read-out: Insecticidal activity against armyworm (%)): 0%; pest or weed control at 100 µg/mL (armyworm; 100 mg/L, read-out: Insecticidal activity against armyworm (%)): 25%
3 | COC(=O)c1ccc(Oc2ccc(CCNc3nc(Cl)ncc3Cl)cc2)nc1 [CK78, reference compound] | 0% | 0% | – | – | – | – | 0% | – | – | – | 0% | 0% | 17% | 0% | 0% | – | – | –
4 | COC(=O)c1ccc(Oc2ccc(CCNc3cc(Cl)nc(C)n3)cc2)nc1 [CK79, reference compound] | 0% | 85% | – | – | – | – | 0% | – | – | – | 0% | 0% | 27% | 100% | 0% | 0% | 16% | –
5 | FC(F)(F)c1cccnc1Oc1ccc(CCNc2cc(Cl)ncn2)cc1 [CK80, reference compound] | 0% | 85% | – | 0% | 0% | 80% | 100% | 0% | 20% | 85% | 100% | 0% | 6% | 87% | 0% | 16% | 40% | –
6 | CCc1ncnc(NCCc2ccc(Oc3cc(Cl)cc(Cl)c3)cc2)c1Cl [II-303] | 100% | – | – | 90% | 100% | 100% | 100% | 100% | 100% | 100% | 100% | – | – | – | – | – | – | pest or weed control at 100 ppm (cucumber downy mildew; read-out: protectant activity against cucumber downy mildew in vivo, 100 ppm): 80 to 99%; pest or weed control at 400 ppm (cucumber downy mildew; read-out: protectant activity against cucumber downy mildew in vivo, 400 ppm): 100%; pest or weed control at 600 ppm (carmine spider mite; 600 ppm, mortality after 72 hrs): 100%; pest or weed control at 0.4 µg/mL (corn rust; read-out: control effect against corn rust (%), 0.4 mg/L, protectant activity): 50%; pest or weed control at 1.6 µg/mL (corn rust; read-out: control effect against corn rust (%), 1.6 mg/L, protectant activity): 80%; pest or weed control at 6.25 ppm (corn rust; read-out: protectant activity against corn rust in vivo, 6.25 ppm): 100%; pest or weed control at 25 ppm (corn rust; read-out: protectant activity against corn rust in vivo, 25 ppm): 100%; pest or weed control at 100 ppm (corn rust; read-out: protectant activity against corn rust in vivo, 100 ppm): 100%; pest or weed control at 400 ppm (corn rust; read-out: protectant activity against corn rust in vivo, 400 ppm): 100%; pest or weed control at 0.4 µg/mL (wheat powdery mildew; read-out: control effect against wheat powdery mildew (%), 0.4 mg/L, protectant activity): 25%; pest or weed control at 1.6 µg/mL (wheat powdery mildew; read-out: control effect against wheat powdery mildew (%), 1.6 mg/L, protectant activity): 80%; pest or weed control at 6.25 ppm (wheat powdery mildew; read-out: protectant activity against wheat powdery mildew in vivo, 6.25 ppm): 80 to 99%; pest or weed control at 25 ppm (wheat powdery mildew; read-out: protectant activity against wheat powdery mildew in vivo, 25 ppm): 100%; pest or weed control at 100 ppm (wheat powdery mildew; read-out: protectant activity against wheat powdery mildew in vivo, 100 ppm): 100%; pest or weed control at 400 ppm (wheat powdery mildew; read-out: protectant activity against wheat powdery mildew in vivo, 400 ppm): 100%; pest or weed control at 100 ppm ([1]; 100 ppm, death rate after 48 hrs): 100%; pest or weed control at 600 ppm ([1]; 600 ppm, death rate after 48 hrs): 100%; pest or weed control at 600 ppm (Diamond back moth; 600 ppm, mortality after 72 hrs, read-out: control (test results against diamond back moth)): 80 to 99%; pest or weed control at 600 ppm (armyworm; 600 ppm, mortality after 72 h): 80 to 99%
